Experimental data published in the supplement of paper PMC10307832.

Experiments:
Experiment in all cases: relative viability (nuclei count vs DMSO), 5 days (fraction); higher = more cells survive
A-427 = tested on: A-427
Summary of the method: (§1)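 One day after seeding in 1536-well plates, lung cancer cell lines were dosed by pin tool. Dosing was either single-drug or a fixed anchor-drug dose plus five library-drug doses (not always all listed) in √10 steps. After 5 days, nuclei were stained in one fix-and-stain step and counted on 4× images, and relative viability is the nuclei count of treated wells over that of vehicle wells, given as the median of duplicate plates.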

ChaGo-K-1 = tested on: ChaGo-K-1
Summary of the method: as §1

EKVX = tested on: EKVX
Summary of the method: as §1

EMC-BAC-2 = tested on: EMC-BAC-2
Summary of the method: as §1

H3255 = tested on: H3255
Summary of the method: as §1

HCC-366 = tested on: HCC-366
Summary of the method: as §1

LK-2 = tested on: LK-2
Summary of the method: as §1

LOU-NH91 = tested on: LOU-NH91
Summary of the method: as §1

NCI-H1666 = tested on: NCI-H1666
Summary of the method: as §1

NCI-H1734 = tested on: NCI-H1734
Summary of the method: as §1

NCI-H1755 = tested on: NCI-H1755
Summary of the method: as §1

NCI-H1975 = tested on: NCI-H1975
Summary of the method: as §1

NCI-H2170 = tested on: NCI-H2170
Summary of the method: as §1

NCI-H23 = tested on: NCI-H23
Summary of the method: as §1

NCI-H441 = tested on: NCI-H441
Summary of the method: as §1

NCI-H596 = tested on: NCI-H596
Summary of the method: as §1

PC-3 [JPC-3] = tested on: PC-3 [JPC-3]
Summary of the method: as §1

SW 900 = tested on: SW 900
Summary of the method: as §1

COc1cc2nccc(Oc3ccc(NC(=O)Nc4cc(C)on4)c(Cl)c3)c2cc1OC [Tivozanib] + NC(=O)Nc1cc(-c2cccc(F)c2)sc1C(=O)N[C@H]1CCCNC1 [AZD7762] (partner 0.2 µM)
relative viability (A-427; first compound 0.005 µM): 0.75 | relative viability (A-427; first compound 0.01581 µM): 0.795 | relative viability (A-427; first compound 0.05 µM): 0.728 | relative viability (A-427; first compound 0.1581 µM): 0.68 | relative viability (A-427; first compound 0.5 µM): 0.719 | relative viability (ChaGo-K-1; first compound 0.005 µM): 0.847 | relative viability (ChaGo-K-1; first compound 0.01581 µM): 0.831 | relative viability (ChaGo-K-1; first compound 0.05 µM): 0.901 | relative viability (ChaGo-K-1; first compound 0.1581 µM): 0.909 | relative viability (ChaGo-K-1; first compound 0.5 µM): 0.845 | relative viability (EKVX; first compound 0.005 µM): 0.592 | relative viability (EKVX; first compound 0.01581 µM): 0.695 | relative viability (EKVX; first compound 0.05 µM): 0.76 | relative viability (EKVX; first compound 0.1581 µM): 0.69 | relative viability (EKVX; first compound 0.5 µM): 0.689 | relative viability (EMC-BAC-2; first compound 0.005 µM): 1.06 | relative viability (EMC-BAC-2; first compound 0.01581 µM): 1.15 | relative viability (EMC-BAC-2; first compound 0.05 µM): 1.06 | relative viability (EMC-BAC-2; first compound 0.1581 µM): 1.06 | relative viability (EMC-BAC-2; first compound 0.5 µM): 1.04 | relative viability (H3255; first compound 0.005 µM): 0.672 | relative viability (H3255; first compound 0.01581 µM): 0.86 | relative viability (H3255; first compound 0.05 µM): 0.961 | relative viability (H3255; first compound 0.1581 µM): 0.735 | relative viability (H3255; first compound 0.5 µM): 0.861 | relative viability (HCC-366; first compound 0.005 µM): 0.333 | relative viability (HCC-366; first compound 0.01581 µM): 0.245 | relative viability (HCC-366; first compound 0.05 µM): 0.35 | relative viability (HCC-366; first compound 0.1581 µM): 0.362 | relative viability (HCC-366; first compound 0.5 µM): 0.25 | relative viability (LK-2; first compound 0.005 µM): 0.512 | relative viability (LK-2; first compound 0.01581 µM): 0.278 | relative viability (LK-2; first compound 0.05 µM): 0.494 | relative viability (LK-2; first compound 0.1581 µM): 0.252 | relative viability (LK-2; first compound 0.5 µM): 0.357 | relative viability (LOU-NH91; first compound 0.005 µM): 0.712 | relative viability (LOU-NH91; first compound 0.01581 µM): 0.77 | relative viability (LOU-NH91; first compound 0.05 µM): 0.753 | relative viability (LOU-NH91; first compound 0.1581 µM): 0.734 | relative viability (LOU-NH91; first compound 0.5 µM): 0.701 | relative viability (NCI-H1666; first compound 0.005 µM): 0.784 | relative viability (NCI-H1666; first compound 0.01581 µM): 0.761 | relative viability (NCI-H1666; first compound 0.05 µM): 0.956 | relative viability (NCI-H1666; first compound 0.1581 µM): 0.82 | relative viability (NCI-H1666; first compound 0.5 µM): 0.845 | relative viability (NCI-H1734; first compound 0.005 µM): 0.515 | relative viability (NCI-H1734; first compound 0.01581 µM): 0.524 | relative viability (NCI-H1734; first compound 0.05 µM): 0.523 | relative viability (NCI-H1734; first compound 0.1581 µM): 0.408 | relative viability (NCI-H1734; first compound 0.5 µM): 0.451 | relative viability (NCI-H1755; first compound 0.005 µM): 0.441 | relative viability (NCI-H1755; first compound 0.01581 µM): 0.428 | relative viability (NCI-H1755; first compound 0.05 µM): 0.444 | relative viability (NCI-H1755; first compound 0.1581 µM): 0.457 | relative viability (NCI-H1755; first compound 0.5 µM): 0.411 | relative viability (NCI-H1975; first compound 0.005 µM): 0.594 | relative viability (NCI-H1975; first compound 0.01581 µM): 0.742 | relative viability (NCI-H1975; first compound 0.05 µM): 0.746 | relative viability (NCI-H1975; first compound 0.1581 µM): 0.836 | relative viability (NCI-H1975; first compound 0.5 µM): 0.595 | relative viability (NCI-H2170; first compound 0.005 µM): 0.689 | relative viability (NCI-H2170; first compound 0.01581 µM): 0.785 | relative viability (NCI-H2170; first compound 0.05 µM): 0.809 | relative viability (NCI-H2170; first compound 0.5 µM): 0.856 | relative viability (NCI-H23; first compound 0.005 µM): 0.185 | relative viability (NCI-H23; first compound 0.01581 µM): 0.229 | relative viability (NCI-H23; first compound 0.05 µM): 0.295 | relative viability (NCI-H23; first compound 0.5 µM): 0.176 | relative viability (NCI-H441; first compound 0.005 µM): 1.05 | relative viability (NCI-H441; first compound 0.01581 µM): 0.935 | relative viability (NCI-H441; first compound 0.05 µM): 1.28 | relative viability (NCI-H441; first compound 0.1581 µM): 1.35 | relative viability (NCI-H441; first compound 0.5 µM): 1.08 | relative viability (NCI-H596; first compound 0.005 µM): 1.03 | relative viability (NCI-H596; first compound 0.01581 µM): 1.1 | relative viability (NCI-H596; first compound 0.05 µM): 1.44 | relative viability (NCI-H596; first compound 0.5 µM): 1.06 | relative viability (PC-3 [JPC-3]; first compound 0.01581 µM): 0.857 | relative viability (PC-3 [JPC-3]; first compound 0.05 µM): 0.927 | relative viability (PC-3 [JPC-3]; first compound 0.1581 µM): 0.741 | relative viability (PC-3 [JPC-3]; first compound 0.5 µM): 0.8 | relative viability (SW 900; first compound 0.005 µM): 0.649 | relative viability (SW 900; first compound 0.01581 µM): 0.636 | relative viability (SW 900; first compound 0.05 µM): 0.675 | relative viability (SW 900; first compound 0.5 µM): 0.547
